Test results from patent US20160053226A1, “Method and Medium for Amplifying Neural Precursor Cells” (INSERM (INSTITUT NATIONAL DE LA SANTÉ ET DE LA RECHERCHE …, priority 2013, published 2016).

Columns and labels:
[1] = tested on: neural precursors; assay: Kinase inhibitor library screening for sustaining neural precursor proliferation (Ki67, EdU incorporation); assay type: cell-based, human; conditions: SA001-derived neural precursors, N2B27 without growth factors, day 7, compared to DMSO-treated cells
Method: Cells were fixed with 4% PFA for 15 min at 4° C. then permeabilized using a PBS/0.3% Triton X100 solution, 10 min at RT. Incubation with primary antibodies was performed. AlexaFluor secondary antibodies and DAPI counterstaining were applied for 1 h at room temperature. Detection was performed using a Zeiss Inverted microscope or the Arrayscan automated microscope.
A homogeneous population of neural precursors was produced after conversion of SA001 PSC line into neural cells and further amplification using EFB medium until passage 8. The stable neural precursors were seeded in 384 well-plates using Agilent BRAVO automate in N2B27 without growth factors. Six hours post-seeding, cells were treated with Enzo Life Sciences Kinase inhibitors library (BML-2832), a collection of 80 different kinase inhibitors. Another treatment was performed at day 4 and the percentage of proliferative precursors was quantified at day 7 using Ki67 and EdU incorporation. SOX2 was used as a neural marker.

[2] = tested on: neural precursors; assay: Terminal differentiation into neurons of amplified neural precursors; assay type: cell-based, human; conditions: amplified for 5 passages, compared to EFB medium
Source text: Terminal differentiation into neurons was induced by plating neural precursors on poly-ornithin/laminin at a density of 50,000 cells/cm^2 in N2B27 medium. Medium was changed every 4 days.
We next measured the ability of neural precursors amplified using the PKA inhibitor HA1004 for 5 passages to produce neurons. This was compared to the production of neurons obtained from precursor amplified using EFB medium as a reference.

| SMILES | neural precursor self-renewal (percentage of Ki67 positive cells) [1] | ability of amplified neural precursors to produce neurons [2] |
| --- | --- | --- |
| CNCCNS(=O)(=O)c1cccc2cnccc12 [H8] | sustained neural precursor self-renewal |  |
| O=S(=O)(c1cccc2cnccc12)N1CCCNCC1 [HA1077] | sustained neural precursor self-renewal |  |
| NCCNS(=O)(=O)c1cccc2cnccc12 [H9] | sustained neural precursor self-renewal |  |
| Cl.N=C(N)NCCNS(=O)(=O)c1cccc2cnccc12 [HA1004, N-(2′-Guanidinoethyl)-5-isoquinolinesulfonamide.HCl] |  | did not impact on their ability to produce neurons |
| CC1CNCCN1S(=O)(=O)c1cccc2cnccc12 (centres unmarked) [H7] | sustained neural precursor self-renewal |  |
